Reference: patent publication US20240158447A1, “PEPTIDES FOR USE IN THE TREATMENT OR PREVENTION OF MYOCARDIAL DAMAGE” (THE UNIVERSITY OF WESTERN AUSTRALIA, priority 2020, published 2024)
Entries after “also recorded” stand apart in the source; their conditions may differ.

Tests used:
cTnI-G203S mice = assay: Echocardiography of pre-cardiomyopathic cTnI-G203S mice (Example 15); type: in vivo, mouse; conditions: 5 μM, 3×/wk/5 wk, FIG. 15
Description: Twenty to thirty week-old male mice expressing the human cTnI gene encoding the human disease-causing cTnI-G203S were generated and used for the in vivo studies. By way of background, the mice develop hallmark features of HCM between 20 and 25 weeks (Viola H, Johnstone V, Cserne Szappanos H, Richman T, Tsoutsman T, Filipovska A, et al. The L-type Ca(2+) channel facilitates abnormal metabolic activity in the cTnI-G2035 mouse model of hypertrophic cardiomyopathy. J Physiol. 2016; 594(14):4051-70; Viola H M, Shah A A, Johnstone V P A, Cserne Szappanos H, Hodson M P, Hool L C. Characterization and validation of a preventative therapy for hypertrophic cardiomyopathy in a murine model of the disease. Proc Nati Aced Sci U S A. 2020; 117(37):23113-24; Tsoutsman T, Chung J, Doolan A, Nguyen L, Williams IA, Tu E, et al. Molecular insights from a novel cardiac troponin I mouse model of familial hypertrophic cardiomyopathy. J Mol Cell Cardiol. 2006; 41(4):623-32). Age-matched male mice expressing the normal human troponin I gene were used as controls and indicated as wild-type (wt). For in vivo studies, 20-week old cTnI-G203S mice were treated with 10 μM AID(S)-TAT (2 mg/kg) or 5 μM AID-TAT mutant peptides via intraperitoneal injection, 3 times per week for a total duration of 5 weeks. The peptide was dissolved in phosphate buffered saline solution (PBS), and the total amount of the 10 μM AID-TAT mutant peptides administered over 5 weeks was 0.9 mg. The total amount of the 5 μM AID-TAT mutant peptides administered over 5 weeks was 0.45 mg Male mice were utilized to eliminate potential differences in responses due to gender. The number of mice used is indicated by N.
Echocardiographic studies to measure left ventricular function were performed on mice under light methoxyflurane anaesthesia with the use of an i13L probe on a Vivid™ 7 IQ ultrasound system (GE Healthcare, Little Chalfont, UK) as previously described (Viola H, Johnstone V, Cserne Szappanos H, Richman T, Tsoutsman T, Filipovska A, et al. The L-type Ca(2+) channel facilitates abnormal metabolic activity in the cTnI-G2035 mouse model of hypertrophic cardiomyopathy. J Physiol. 2016; 594(14):4051-70; Viola H M, Shah A A, Johnstone V P A, Cserne Szappanos H, Hodson M P, Hool L C. Characterization and validation of a preventative therapy for hypertrophic cardiomyopathy in a murine model of the disease. Proc Natl Acad Sci U S A. 2020; 117(37):23113-24; Viola H M, Johnstone V P A, Cserne Szappanos H, Richman T R, Tsoutsman T, Filipovska A, et al. The Role of the L-Type Ca(2+) Channel in Altered Metabolic Activity in a Murine Model of Hypertrophic Cardiomyopathy. JACC Basic Transl Sci. 2016; 1(1-2):61-72). Each N represents the average of quantitative measurements from wt or cTnI-G203S mice for each treatment group.

[1] = test system: wild type cardiac myocytes; assay: Mitochondrial membrane potential (JC-1) after H2O2 in cardiac myocytes; type: cell-based, mouse; conditions: 20 min incubation with 0.5-1 μM peptide; calcium-free; 30 μM H2O2 5 min; FIG. 3(c)
Description: Adult male C57BL/6J mice were anesthetized with pentobarbitone sodium (240 mg/kg) via intraperitoneal injection prior to excision of the heart. Ventricular myocytes were isolated. Mouse hearts were cannulated onto a Langendorff apparatus via the aorta and perfused retrogradely with Krebs-Henseleit Buffer (KHB) containing (in mM): 120 NaCl, 25 NaHCO3, 4.8 KCl, 2.2 MgSO4, 1.2 NaH2PO4 and 11 glucose (pH=7.35 with O2/CO2 at 37° C.) for 4 min at 37° C. Hearts were then perfused with KHB supplemented with 2.4 mg/ml collagenase B for 3 min, then 8 min perfusion in the presence of 40 μM calcium. […]
All in vitro studies were performed in freshly isolated myocytes at 37° C. […] Following a 20 min incubation with 0.5-1 μM AID(S)-TAT, AID-TAT, peptide 6 or peptide 7, fluorescent signal of individual myocytes was quantified using Metamorph 6.3 to measure signal intensity of manually traced cell regions. […]
Mitochondrial membrane potential (Ψm) was monitored in cardiac myocytes by assessing alterations in 5,5′,6,6′-tetrachloro-1,1′,3,3′-tetraethylbenzimidazolylcarbocyanine iodide fluorescence (JC-1: 200 nM, ex 480 nm, em 580/535 nm, Molecular Probes). […] Ratiometric 580/535 nm fluorescent signal was quantified and reported as a percentage from the baseline pre-treatment average. […]

Substance: AIDP7-TAT: QQQEEDLKGYLDWITQAE with TAT sequence
- IVDS (cTnI-G203S mice): trend toward increased LVEDd and LVEDs, and decreased IVDS
- EF, ejection fraction (cTnI-G203S mice; versus AID(S)-TAT): effectively restored
- FS, fractional shortening (cTnI-G203S mice; versus AID(S)-TAT): effectively restored
- IVSs, intraventricular septum in systole (cTnI-G203S mice; versus AID(S)-TAT): significant decrease; also recorded: effectively restored
- LVEDd, left ventricular end diameter during diastole (cTnI-G203S mice; versus AID(S)-TAT): trend toward increased LVEDd and LVEDs, and decreased IVDS
- LVEDs, left ventricular end diameter during systole (cTnI-G203S mice; versus AID(S)-TAT): trend toward increased LVEDd and LVEDs, and decreased IVDS
- LVPWd, left ventricular posterior wall in diastole (cTnI-G203S mice; versus AID(S)-TAT): effectively restored
- LVPWs, left ventricular posterior wall in systole (cTnI-G203S mice; versus AID(S)-TAT): effectively restored; also recorded: significant decrease
- mitochondrial membrane potential (JC-1) [1]: reduced the mitochondrial membrane potential
